Experiments:
[1] = Exercise performance test, 10 km SPIN CYCLE travel time (Example 3); format: in vivo, human; conditions: about 200 mg/day
Protocol: As test subjects, 21 healthy males at the ages of 20 to 49 who have exercise habits of conducting exercise with an intensity of 5 METs or more for 30 minutes or more once or twice a week and who can continue the exercise habits during the test period as well were selected.
Among the 21 test subjects, 10 test subjects were selected as an α-cyclodextrin (αCD) intake group, and the remaining 11 test subjects were selected as a placebo group. The test subjects themselves were not informed who belonged to which group.
Test Supplements (tablets) having compositions described in Table 1 below were used. One tablet of the test supplements was of about 250 mg.
Each test subject of the αCD intake group and the placebo group was asked to take in 3 tablets of the above test supplements once a day at any timing. That is, each test subject of the α-cyclodextrin intake group was asked to take in about 200 mg of α-cyclodextrin per day.
The intake period for the test supplements was set to 9 weeks, and change in gut flora was evaluated, a questionnaire on fatigue feeling was conducted, and change in travel time was evaluated, before the start of the intake, after 4-week intake, and after 8-week intake. […]

[2] = Suppression of increase in heart rate during exercise, Aerobike exercise loading test (Example 4); format: in vivo, human; conditions: about 1000 mg/day
Protocol: (§1) As the test subjects, 86 healthy males at the ages of 20 to 49 who have exercise habits of conducting exercise with an intensity of 5 METs or more for 30 minutes or more once or twice a week and who can continue the exercise habits during the test period as well were selected.
(§2) Among the 86 test subjects, 43 test subjects were selected as an α-cyclodextrin (αCD) intake group, and the remaining 43 test subjects were selected as a placebo group. The test subjects themselves were not informed who belonged to which group.
(§3) Test Supplements (tablets) having compositions described in Table 4 below were used. One tablet of the test supplements was of about 600 mg.
(§4) Each test subject of the αCD intake group and the placebo group was asked to take in 4 tablets of the above test supplements once a day at any timing. That is, each test subject of the α-cyclodextrin intake group was asked to take in about 1000 mg of α-cyclodextrin per day.
(§5) The intake period for the test supplements was set to 8 weeks, and the heart rate during exercise was measured, before the start of the intake, after 4-week intake, and after 8-week intake to evaluate change in heart rate. In addition, a questionnaire on fatigue feeling was conducted before the start of the intake of the test supplements and after 8-week intake, and change in travel time was evaluated. […]

[3] = tested on: Bacteroides, Bifidobacterium, and Lactobacillus; conditions: obese mice given high-fat diets, fed α-cyclodextrin; cited from earlier work
[4] = Fatigue feeling mitigation test, VAS general fatigue feeling (Example 5); format: in vivo, human; conditions: after 8-week intake, about 1000 mg/day; p<0.05
Protocol: as §1, §2, §3, §4, §5

In the case of `OC[C@H]1O[C@@H]2O[C@H]3[C@H](O)[C@@H](O)[C@@H](O[C@H]4[C@H](O)[C@@H](O)[C@@H](O[C@H]5[C@H](O)[C@@H](O)[C@@H](O[C@H]6[C@H](O)[C@@H](O)[C@@H](O[C@H]7[C@H](O)[C@@H](O)[C@@H](O[C@H]1[C@H](O)[C@H]2O)O[C@@H]7CO)O[C@@H]6CO)O[C@@H]5CO)O[C@@H]4CO)O[C@@H]3CO` [α-cyclodextrin], the “travel time for 10 km” value ([1]; after 4-week intake, compared with same group before intake) is reported as “significantly shortened”, the “travel time for 10 km” value ([1]; after 8-week intake, compared with same group before intake and placebo group after 8-week intake) is reported as “significantly shortened” and the “average heart rate for 10 minutes immediately before the end of exercise (Δ value vs before intake), compared with placebo group” value ([2]; after 4-week intake, tendency) is reported as “lower”. For the same compound, the “average heart rate for 10 minutes immediately before the end of exercise (Δ value vs before intake), compared with placebo group” value ([2]; after 8-week intake, p<0.05) was “significantly lower”, the accumulation of fat [3] was “reductions in accumulation of fat” and the “total bacterial cell numbers of Bacteroides, Bifidobacterium, and Lactobacillus in the intestinal tracts” value [3] was “suppress decreases”. For the same compound, the “general fatigue feeling (VAS) immediately after exercise, change vs before intake, compared with placebo group” value [4] was “significantly decreased”.

From patent US20250176602A1, “Composition for Proliferation of Bacteroides uniformis in the Intestinal Tract” (Asahi Group Holdings, Ltd., priority 2019, published 2025)
